Key:
Cytochrome P450 2C19 = Cytochrome P450 2C19 (Homo sapiens, UniProt P33261); test: Cytochrome P450 inhibition, 2C19; type: in vitro ADME
Cytochrome P450 2D6 = Cytochrome P450 2D6 (Homo sapiens, UniProt P10635); test: Cytochrome P450 inhibition, 2D6; type: in vitro ADME
rotarod performance = test: Rotarod test (motor coordination); type: in vivo, Albino Swiss mice; conditions: 5, 15, and 30 mg/kg i.p., 30 min before the test trial, mice
Procedure: The animals were trained for 3 consecutive days at the speed of 18 rpm, one session per day for 3 min. If a mice fell during the habituation period, it was placed back on the apparatus. On the following day, the test trial was performed. After the mice were placed on the apparatus (Mouse Rota-Rod NG, UGO BASILE S.R.L.) moving at the speed of 12 rpm, the accelerating mode was started (maximum speed – 24 rpm). The latency to fall was measured during 3-min test session.

[1] = system: field potentials in frontal cortical slices; test: Electrophysiology: field potentials in frontal cortical slices, WILD mice; design: species or system C57BL/6J WT mice; conditions: for Before-after effect of the drug on FP amplitude: WILD group; for S (factor proportional to the slope of the curve) / Uh (stimulation intensity evoking FP of half-maximum amplitude) / Vmax (maximum FP amplitude, Boltzmann fit): slices from WILD mice, after 20 min drug superfusion
Text: Mice (wild and KO, approx. 25 g) were housed under a controlled light/dark cycle (light on: 0700–1900) and had free access to standard food and tap water. Mice were anesthetized with isoflurane (Aerrane, Baxter) decapitated, their brains were dissected and immersed in an ice-cold artificial cerebrospinal fluid (ACSF) of the following composition (in mM): NaCl (130), KCl (5), CaCl2 (2.5), MgSO4 (1.3), KH2PO4 (1.25), NaHCO3 (26), and glucose (10), bubbled with a mixture of 95% O2/5% CO2 to pH 7.4. Frontal cortical slices (bregma 1.9–1.4, 380 μm) were cut in a coronal plane using a vibrating microtome and they were stored at 32°C. A single slice was next transferred to the recording chamber (32°C ± 0.5°C) and superfused at 2.5 ml/min with a ACSF.
A bipolar stimulating electrode (FHC) was placed approx. 2 mm lateral to the midline and approx. 1.0 mm below the pial surface (in layer V) (Figure 1). Stimuli (duration: 0.2 ms) were applied at 0.033 Hz using a constant-current stimulus isolation unit (WPI). Field potentials (FPs) were recorded using glass micropipettes filled with ACSF (1–3 MΩ), which were placed approx. 0.2 mm below the cortical surface (in layer II/III). FPs were amplified (Axoprobe 1A, Axon Instruments), A/D converted at 10 kHz and stored using Micro1401 interface and Signal 4 software (CED).
The stimulus–response curves obtained for each slice were fit with the Boltzmann equation: Vi = Vmax/(1 + exp[(u - Uh)/-S]), where Vmax is the maximum FP amplitude; u is the stimulation intensity; Uh is the stimulation intensity evoking FP of half-maximum amplitude; S is the factor proportional to the slope of the curve; “exp” is exponentiation – mathematical operation. The results are expressed as the means ± SEM. Statistical analyses were carried out using t-test ([Tokarski et al., 2011]).
For each slice, at the beginning of the experiment an input-output curve was generated in ACSF. A stimulus-response (input-output) curve was made for each slice. […] One response was recorded at each stimulation intensity. […] Statistical analyzes were carried out using paired t-test and ANOVA.

Cytochrome P450 1A2 = biological target: T1, Cytochrome P450 1A2 (Homo sapiens, UniProt P05177); test: Cytochrome P450 inhibition, 1A2; type: in vitro ADME
T1 sequence (P05177 1-516): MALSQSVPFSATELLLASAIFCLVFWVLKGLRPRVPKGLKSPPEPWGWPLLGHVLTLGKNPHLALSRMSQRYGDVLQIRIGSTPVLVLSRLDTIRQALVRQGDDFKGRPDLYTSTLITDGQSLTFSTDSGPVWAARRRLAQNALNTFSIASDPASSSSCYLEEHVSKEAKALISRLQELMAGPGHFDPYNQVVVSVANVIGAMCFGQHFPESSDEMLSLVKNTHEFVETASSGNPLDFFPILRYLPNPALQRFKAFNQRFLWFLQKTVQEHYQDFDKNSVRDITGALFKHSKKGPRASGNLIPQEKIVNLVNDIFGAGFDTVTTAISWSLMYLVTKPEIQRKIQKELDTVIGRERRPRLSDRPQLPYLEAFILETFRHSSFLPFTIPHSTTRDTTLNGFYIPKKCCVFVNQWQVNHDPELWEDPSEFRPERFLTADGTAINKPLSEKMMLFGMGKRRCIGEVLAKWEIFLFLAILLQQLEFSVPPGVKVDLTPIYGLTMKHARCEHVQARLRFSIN

Cytochrome P450 2C9 = Cytochrome P450 2C9 (Homo sapiens, UniProt P11712); test: Cytochrome P450 inhibition, 2C9; type: in vitro ADME
[2] = Pharmacokinetic study, plasma concentration after i.p. injection; type: in vivo; conditions: Albino Swiss, ip, mouse, 10 mg/kg i.p.; for Tmax: 10 mg/kg
Procedure: The mice were then perfused with 0.1M PBS to remove remaining blood from the body, and the brains were taken out for the analysis. Blood was centrifuged at 2000 rpm for 10 min at 4°C, and the plasma was collected and frozen at -80°C for further analysis.
Plasma and tissue samples from all drug-treated animals were thawed at room temperature prior to use. Standard protocol of sample preparation: 200 μl acetonitrile was added to the eppendorfs with 50 μl of studied plasma samples or tissue homogenate. Samples were mixed for 5 min on a mixer at 25°C and 1400 rpm. Tubes were then centrifuged at 2000 × g for 15 min at 4°C. About 180 μl of each supernatant was transferred into a plate well. Finally, each sample was injected into the column.
In calibration curve – serial dilution method, plasma was spiked with standard at different concentration levels. Acetonitrile was added. Mixed, centrifuged supernatant was taken.
Plasma and tissue samples from all drug-treated animals at selected time points are analyzed using previously developed a non-validated liquid chromatography-tandem mass spectrometry (LC-MS)/MS method.
LC/MS analysis was carried on a Bruker amaZon SL mass spectrometer using positive/ negative ion ESI mode. Chromatographic separation was achieved on a Ascentis Express C18 column, (5 cm × 2.1 mm, […], Supelco Technologies) at room temperature with a thermostatted column oven. A gradient elution of eluents A [acetonitrile (LiChrosolv, Reag. Ph Eur) +0.1% formic acid (Sigma–Aldrich, 98–100%)] and B (water +0.1% formic acid) was used for separation. The flow rate was set at 1 ml/min. The injection volume was 20 μl, and the time of injection was 4 min.
An Ion trap mass spectrometer (Bruker amaZon SL) was equipped with an electrospray source, operating in the positive/negative ion mode. Data were collected and processes using Bruker Quant Analysis software. Quantification of analytes was performed in SIM mode.

Sequence of Cytochrome P450 2C9 (P11712 whole entry): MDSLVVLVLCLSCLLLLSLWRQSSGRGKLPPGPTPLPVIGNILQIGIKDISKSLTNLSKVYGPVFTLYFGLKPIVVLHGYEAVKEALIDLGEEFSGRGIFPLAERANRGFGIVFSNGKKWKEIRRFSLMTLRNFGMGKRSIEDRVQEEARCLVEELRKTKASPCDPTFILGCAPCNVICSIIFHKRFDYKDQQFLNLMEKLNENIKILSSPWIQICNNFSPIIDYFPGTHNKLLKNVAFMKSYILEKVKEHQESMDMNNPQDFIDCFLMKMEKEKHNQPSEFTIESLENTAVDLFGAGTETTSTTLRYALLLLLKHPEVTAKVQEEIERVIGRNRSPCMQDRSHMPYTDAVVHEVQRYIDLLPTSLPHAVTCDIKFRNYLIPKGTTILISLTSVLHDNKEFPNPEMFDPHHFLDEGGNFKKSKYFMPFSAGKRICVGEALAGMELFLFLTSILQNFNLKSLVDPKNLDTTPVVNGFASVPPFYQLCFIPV
Sequence of Cytochrome P450 2C19 (P33261 whole entry): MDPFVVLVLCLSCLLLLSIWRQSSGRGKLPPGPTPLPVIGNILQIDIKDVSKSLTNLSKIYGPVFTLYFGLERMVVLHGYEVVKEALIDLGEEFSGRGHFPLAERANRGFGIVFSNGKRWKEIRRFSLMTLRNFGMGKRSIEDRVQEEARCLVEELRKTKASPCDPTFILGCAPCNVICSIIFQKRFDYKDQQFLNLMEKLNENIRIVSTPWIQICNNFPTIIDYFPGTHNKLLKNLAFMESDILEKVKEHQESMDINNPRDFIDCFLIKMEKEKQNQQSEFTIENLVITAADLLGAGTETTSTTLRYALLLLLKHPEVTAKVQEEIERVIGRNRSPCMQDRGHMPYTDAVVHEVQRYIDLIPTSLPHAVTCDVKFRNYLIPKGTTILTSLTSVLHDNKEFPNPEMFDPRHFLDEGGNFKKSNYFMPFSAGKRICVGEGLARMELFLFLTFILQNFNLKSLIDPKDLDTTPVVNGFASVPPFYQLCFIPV
Sequence of Cytochrome P450 2D6 (P10635 whole entry): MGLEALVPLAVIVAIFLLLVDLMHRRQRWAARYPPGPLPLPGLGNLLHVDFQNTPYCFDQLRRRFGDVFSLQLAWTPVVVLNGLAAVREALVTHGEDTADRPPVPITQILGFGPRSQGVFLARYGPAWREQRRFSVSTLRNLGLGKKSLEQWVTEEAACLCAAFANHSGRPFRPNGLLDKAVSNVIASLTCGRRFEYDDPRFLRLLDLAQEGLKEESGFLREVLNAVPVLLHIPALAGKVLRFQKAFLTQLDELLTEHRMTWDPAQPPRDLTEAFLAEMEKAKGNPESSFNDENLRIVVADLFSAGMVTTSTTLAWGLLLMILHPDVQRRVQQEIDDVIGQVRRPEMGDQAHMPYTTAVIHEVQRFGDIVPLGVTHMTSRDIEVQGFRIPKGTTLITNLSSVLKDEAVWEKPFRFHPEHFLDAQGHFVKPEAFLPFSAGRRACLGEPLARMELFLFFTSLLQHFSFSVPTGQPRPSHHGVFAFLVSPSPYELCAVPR

## CCc1nc2c(o1)CC(c1ccc(C)cc1C)CC2=O (stereo not drawn) [ADX71743, 6-(2,4-Dimethylphenyl)-2-ethyl-6,7-dihydro-4(5H)-benzoxazolone]
Cytochrome P450 2C19
  IC50: 3.3 to 10 µM
Cytochrome P450 2D6
  IC50: > 10 µM
Rotarod performance
  Motor impairments in the rotarod test (latency to fall): did not induce detectable motor impairments
[1]
  Before-after effect of the drug on FP amplitude: 116%
  S (factor proportional to the slope of the curve): 6.53 ± 0.3
  Uh (stimulation intensity evoking FP of half-maximum amplitude): 26.07 ± 1.3
  Vmax (maximum FP amplitude, Boltzmann fit): 2.531 ± 0.1^∗∗∗
Cytochrome P450 1A2
  IC50: > 10 µM
Cytochrome P450 2C9
  IC50: > 10 µM
[2]
  AUC: 1.9 µM·h
  Cmax: 3.73 µM
  half-life: 54 min
  Tmax: 15 min

## COc1ccc(-c2cc3onc(-c4ccncc4)c3c(=O)n2C)cc1 [MMPIP, 6-(4-Methoxyphenyl)-5-methyl-3-(4-pyridinyl)-isoxazolo(4,5-c)pyridin-4(5H)-one]
Cytochrome P450 2C19
  IC50: < 1.1 µM
Cytochrome P450 2D6
  IC50: > 10 µM
Rotarod performance
  Motor impairments in the rotarod test (latency to fall): did not induce detectable motor impairments
[1]
  Before-after effect of the drug on FP amplitude: 123%
  S (factor proportional to the slope of the curve): 9.37 ± 0.83
  Uh (stimulation intensity evoking FP of half-maximum amplitude): 26.93 ± 1.6
  Vmax (maximum FP amplitude, Boltzmann fit): 2.53 ± 0.3^∗∗∗
[1]; WILD vs. KO
  Before-after effect, WILD group higher than KO animals: about 23%
Cytochrome P450 1A2
  IC50: > 10 µM
Cytochrome P450 2C9
  IC50: > 10 µM
[2]
  AUC: 13.5 µM·h
  Cmax: 9.85 µM
  half-life: 69.6 min
  Tmax: 30 min
